Results: patent US20230355727A1, “TREATMENT OF RETINAL DISORDERS” (Tel HaShomer Medical Research Infrastructure and Services …, priority 2020, published 2023)
Entries after “also recorded” stand apart in the source; their conditions may differ. Peptide text beside a SMILES is read from it. * marks the point of attachment. Tos = Cc1ccc(S(=O)(=O)*)cc1; CH2Cl = ClC*

Assays:
diabetic rats = details: STZ-induced diabetes; Shavit-Stein et al. PLoS One 2019; cited from earlier work
glioma cell lines = details: inhibition of thrombin activity and blocking PAR1 activation; Shavit-Stein et al. 2018; cited from earlier work
[1] = test system: STZ-induced diabetic C57BL/6 mice; test: Retinal function by ERG in STZ-induced diabetic mice; format: in vivo, mouse
Procedure: Diabetes induction: Diabetes was induced in mice at age of 8 weeks by a single intraperitoneal injection of 150 mg/Kg STZ (Sigma-Aldrich). Blood glucose concentration was measured from the tail vein using Xpress-i glucometer (Nova Biomedical). Hyperglycemia was defined as blood glucose >[…] [Shavit-Stein et al. (2019) PLoS One 14, e0219453].
Electroretinogram (ERG): Mice were dark-adapted for 16 hours. ERG responses to light flashes at 5 increasing intensities (0.023, 0.249, 2.44, 7.8 and 23.5 cd-s/m^2) are recorded from both eyes simultaneously. Light-adapted ERG is similarly performed following 5 minutes light adaptation [Edelshtain et al. (2019) Algal Research 43, 101607].
C57BL/6 mice received either sham (PBS, n=5) or PARIN5 (100 nM in PBS, n=7) treatment for 7 days, starting at three days after diabetes induction by STZ injection. Retinal function was determined by ERG. Treatment included intraperitoneal (IP) injection (0.5 µl/gram, once a day) and eye drops (10 µl/eye, once a day).
In further experiments, STZ-induced diabetic were treated with eye drops, 100 nM PARIN5 in PBS (10 µl/eye, once a day), for 5 weeks. Non-diabetic mice and diabetic non-treated mice served as control.

ALS animal model SOD-1 = details: SOD-1 ALS animal model; cited from earlier work

**Q.** With `N=C(N)c1ccc(CC(NC(=O)CNS(=O)(=O)c2ccc3ccccc3c2)C(=O)N2CCCCC2)cc1` (racemic) [NAPAP, Nα-(2-naphthyl-sulphonyl-glycyl)-DL-p-amidinophenylalanyl-piperidine] as the molecule, how does the “Nerve conduction velocity in diabetic rats” value (diabetic rats) read?
**A.** prevent the decreased nerve conduction velocity

**Q.** And the “Growth of glioma cell lines” value (glioma cell lines)?
**A.** significantly inhibits their growth

**Q.** Which “Retinal function by ERG b-wave after 5 weeks of daily eye drops, versus control non-diabetic mice” value ([1]; 100 nM in PBS eye drops, 10 µl/eye once a day, 5 weeks, measured 2 and 5 weeks after STZ, all p>0.3, FIG. 6) does the source give for `Cc1ccc(S(=O)(=O)N[C@H](C(=O)N[C@@H](CC(C)C)C(=O)N[C@@H](CC(=O)O)C(=O)N2CCC[C@H]2C(=O)N[C@@H](CCCNC(=N)N)C(=O)CCl)[C@@H](C)O)cc1` [PARIN5, ^37TLDPR^41-CMK] (Tos-TLDPR-CH2Cl) here?
**A.** no significant differences; also recorded: protected the mouse retinal function

**Q.** And the “Retinal function by ERG (b-wave) after 7-day treatment” value ([1]; 100 nM in PBS, IP injection 0.5 µl/gram plus eye drops 10 µl/eye, once a day, 7 days, from three days after STZ, versus sham PBS, FIG. 5)?
**A.** preserved mouse retinal function

**Q.** Which “Life span of ALS model animals” value (ALS animal model SOD-1) does the source give for `CC(C)c1ccc(Cn2ccc3c4c(N)nc(NC5CC5)nc4ccc32)cc1.Cl.Cl` [SCH79797, N3..Cyclopropyl-7..[[4..(1.. methylethyl)phenyl]methyl]-7H-pyrrolo[3,2-f]quinazoline-1,3-diamine dihydrochloride] here?
**A.** increase the life span of these ALS model animals significantly

**Q.** Which “Life span of ALS model animals” value (ALS animal model SOD-1) does the source give for `Cc1ccc(S(=O)(=O)N[C@@H](CCCCN)C(=O)CCl)cc1` [TLCK, N-alpha-tosyl-L-lysine chloromethyl ketone] here?
**A.** increase the life span of these ALS model animals significantly
